For series [1], the system named is B. thetaiotaomicron. The experiment in a line: Minimum inhibitory concentration of polymyxin B with CRISPRi against BT1854. It is filed as cell-based. From the text:
FIGS. 4A-4F. CRISPRi-mediated repression of recombinant and endogenous genes. (FIG. 4A) Schematic of dCas9-based repression of NanoLuc. LacI^Q is expressed from PBT1311 and represses transcription from the PLacO23 promoter. Addition of IPTG inactivates LacI^Q to allow expression of dCas9 from PLacO23 dCas9 complexes with guide RNA (sgRNA) constitutively expressed from the P1 promoter to prevent the transcription of NanoLuc from the PcfiA promoter. Guide RNAs were designed to target the coding sequence of NanoLuc (NL1-4) or the PcfiA promoter (PR1-2). (FIG. 4B) Response curves of dCas9-mediated targeting the coding sequence of NanoLuc (NL1-4), the promoter (PR1-2) or a nonsense sequence (NS). Fourfold serial dilutions of IPTG starting at 500 μM or no inducer were added to cultures. Response curves were fit to a Hill Function (solid lines). (FIG. 4C) Fold repression elicited by various gRNAs in the presence (500 μM) of inducer. Bars are colored to correspond to part B. (FIG. 4D) Genomic location of endogenous genes targeted using CRISPRi. […]
Resistance to inflammation-associated cationic antimicrobial peptides, such as polymyxin B, is essential for the stability of commensal organisms in the dynamic gut environment. […] Using the minimum inhibitory concentration (MIC) of polymyxin B as a phenotypic readout, an sgRNA was designed to specifically suppress BT1854 expression.

The subject of series [2] is NanoLuc. The experiment in a line: NanoLuc luciferase reporter expression from constitutive promoters and RBSs integrated with pNBU2. It is filed as cell-based, B. thetaiotaomicron. Particulars: for Average Luminescence (RLU/CFU): RBS combined with promoter PBT1311, NanoLuc reporter, three biological replicates. Background: Reporter assays use an easily measured gene product as a stand-in for the process of interest.

Series [3] relates to NanoLuc. Description: Response curves of inducible promoters driving NanoLuc. Particulars: for change in gene expression on induction: IPTG induction. It is filed as cell-based, B. thetaiotaomicron. The procedure:
FIGS. 2A-2E. Design and characterization of genetic sensors. (FIGS. 2A-2D) Response curves for NanoLuc under the regulated control of the rhamnose—(Rha) (FIG. 2A), chondroitin sulfate—(ChS) (FIG. 2B), arabinogalactan—(AG) (FIG. 2C), or IPTG—(FIG. 2D) inducible promoters. LacO1 operator sites were inserted in various regions (O1, O2, O3) of the PcfxA promoter (see also FIGS. 7A-7B). Inducer concentrations were applied as follows: three-fold serial dilutions starting at 10 mM Rha (FIG. 2A); three-fold serial dilutions starting at 0.4% for ChS (FIG. 2B) and AG (FIG. 2C); and four-fold serial dilutions starting at 500 μM for IPTG (FIG. 2D). The leftmost data point in each plot represents the background luminescence in the absence of inducer. Response curves were fit to a Hill function (solid lines). (FIG. 2E) Orthogonality matrix of sugar-inducible genetic systems incubated with 10 mM rhamnose (Rha), 0.2% chondroitin sulfate (ChS), 0.2% arabinogalactan (AG), or 100 mM IPTG compared to no inducer. Error bars represent the standard deviation of three biological replicates made on different days.
FIGS. 7A-7B. Synthetic IPTG-inducible promoters. (FIG. 7A) Synthetic IPTG-inducible promoters were constructed by placing LacO1 operator sites (red) upstream of the −33 element (O1), between the −33 and −7 elements (O2) and/or directly downstream of the transcription start site (O3) of the strong PcfxA promoter. Predicted −33, −7 and +1 sites are shown in bold. These promoters are regulated by the E. coli LacIQ repressor expressed from PBT1311. FIG. 7A depicts SEQ ID NOs: 217 to 220 from top to bottom, respectively. (FIG. 7B) Response curves for the synthetic IPTG-inducible systems. Cells were incubated with no inducer or four-fold serial dilutions of IPTG starting at 500 μM. Data sets for PLacO13 and PLacO23 were fit to a Hill function (solid line). Error bars represent the standard deviation of three biological replicates made on three different days (n=3).
To create inducible systems for use in B. thetaiotaomicron, parts from a large repertoire of systems that govern carbohydrate utilization were used, which included cytoplasmic transcription factors, extracytoplasmic function sigma/anti-sigma pairs, and hybrid two-component systems (HTCS), among others (64). In B. thetaiotaomicron, rhamnose metabolism is mediated by the AraC/XylS-family transcriptional activator, RhaR, which activates transcription at the PBT3763 promoter (Patel E H, et al. Res. Microbiol. 159:678-84, 2008). To assay the functionality of PBT3763 as an inducible system, 250 bp of the promoter-RBS region was cloned upstream of the start codon of BT3763 into the pNBU2 expression vector to drive expression of NanoLuc.
Two-component systems are signal-transduction mechanisms widespread in bacteria for sensing external stimuli. […] Putative HTCSs, BT3334 and BT0267, were identified in transcriptomic studies to control expression of the chondroitin sulfate (ChS)-inducible PBT3324 promoter and arabinogalactan (AG)-inducible PBT0268 promoter, respectively (64, 83). The promoter regions upstream of the BT3324 and BT0268 genes were used as the basis for two polysaccharide sensors. Chondroitin sulfate induction of PBT3324 and arabinogalactan induction PBT0268 led to a 60-fold and 29-fold regulation of output gene expression, respectively (FIGS. 2B and 2C).
Next, an IPTG-inducible system was developed. Pairs of LacO1 operator sites were inserted in the strong PcfxA promoter in three locations: upstream of the −33 element (O1), between the −33 and −7 elements (O2) or just downstream of the transcription start site (O3) (FIGS. 7A-7B). The LacI^Q repressor was expressed from the strong BT1311 promoter to achieve tight control of NanoLuc expression. Compared to the unmodified PcfxA promoter, the addition of synthetic operator sites diminished the maximum expression of NanoLuc (FIGS. 7A-7B). […]

Where [4] appears, read: IPTG inducer, LacIQ expressed from BT1311 promoter, read-out: threshold K.

Like-named read-outs stand apart in the source and are kept apart here.

As for polymyxin B, the “decrease in MIC compared to WT and dCas9NS control” value in series [1] (dCas9BT1854 cells, dCas9 induced with IPTG) lay in the range of 8 to 16 fold. Further, the “polymyxin B resistance” value in series [1] (dCas9NS strains, presence or absence of IPTG induction, similar to WT) was “high levels of polymyxin B resistance”. Consider “C24: RBS, SEQ ID NO: 67 (DNA TCCCGCATTTTAAAATAAAATAAATTATTTCTTTATTTAAACGAAT; chemistry not fully specified)”, for which the “Average Luminescence (RLU/CFU)” value in series [2] came out at 0.01287 RLU/CFU. The same measure, in the same setting: for “C2: RBS, SEQ ID NO: 13 (DNA TCCCGCATTTTAAAATAAAATAAATTATTACTTTAGTTAAACGAAT; chemistry not fully specified)” the value was 0.04331 RLU/CFU; for “A27: RBS, SEQ ID NO: 89 (DNA TCCCGCATTTTAAAATAAAATAAATTATTGGTTTAGTTAAACGAAT; chemistry not fully specified)”, 0.007908 RLU/CFU. As to “A10: RBS, SEQ ID NO: 49 (DNA TCCCGCATTTTAAAATAAAATAAATTATTGCTTTAGTTAAACGAAT; chemistry not fully specified)”, the “Average Luminescence (RLU/CFU)” value in series [2] is given as 0.01835 RLU/CFU. On the same count and under the same terms, for “B26: RBS, SEQ ID NO: 68 (DNA TCCCGCATTTTAAAATAAAATAAATTATTTAGTTAATTAAACGAAT; chemistry not fully specified)” the value was 0.01271 RLU/CFU.

In the case of “A34: RBS, SEQ ID NO: 107 (DNA TCCCGCATTTTAAAATAAAATAAATTATTTGTTTACTTAAACGAAT; chemistry not fully specified)”, in series [2], the “Average Luminescence (RLU/CFU)” value is 0.005181 RLU/CFU. On the same count and under the same terms, with “C8: RBS, SEQ ID NO: 21 (DNA TCCCGCATTTTAAAATAAAATAAATTATTTATCGAATTAAACGAAT; chemistry not fully specified)” the figure was 0.03132 RLU/CFU; with “C54: RBS, SEQ ID NO: 141 (DNA TCCCGCATTTTAAAATAAAATAAATTATTCGTTTATTTAAACGAAT; chemistry not fully specified)”, 3.651E-05 RLU/CFU. On to “rpiL*: parent ribosomal protein RBS, SEQ ID NO: 39, 172, 174 (DNA TCCCGCATTTTAAAATAAAATAAATTATTTATTTAATTAAACGAAT; chemistry not fully specified)”, for which, in series [2], the “Average Luminescence (RLU/CFU)” value came to 0.02133 RLU/CFU. In series [2] (set of 8 RBSs, under control of PBT1311, NanoLuc reporter), the “Expression Level (RLU/CFU)” value was 2.13E-02 RLU/CFU. For the molecule “C38: RBS, SEQ ID NO: 108 (DNA TCCCGCATTTTAAAATAAAATAAATTATTCTTTTATTTAAACGAAT; chemistry not fully specified)”, the “Average Luminescence (RLU/CFU)” value in series [2] was determined as 0.004774 RLU/CFU. Still for that read-out and setting: with “A4: RBS, SEQ ID NO: 29 (DNA TCCCGCATTTTAAAATAAAATAAATTATTAATTTAATTAAACGAAT; chemistry not fully specified)” the figure was 0.02664 RLU/CFU; with “B11: RBS, SEQ ID NO: 18 (DNA TCCCGCATTTTAAAATAAAATAAATAATGTAATTAATTAAACGAAT; chemistry not fully specified)”, 0.03308 RLU/CFU; with “A28: RBS, SEQ ID NO: 94 (DNA TCCCGCATTTTAAAATAAAATAAATTATTCTTTTATTTAAACGAAT; chemistry not fully specified)”, 0.006884 RLU/CFU.

B1: PLacO13: Synthetic IPTG-inducible promoter + RBS, SEQ ID NO: 148 (nucleic acid)
DNA: TTACAAAGAAAATTCGACAAACTGTTATTTTTCTATCTATTTAAATTGTGAGCGGATAACAATTTGGGTGGGAAACTTTAGTTATGTACCTTTGTCGGCAATTGTGAGCGGATAACAATTAAATAAAGATATTCTCGTCAAACAAATATAAATAATATAAAC
Regarding B1, the EC50 in series [3] (setting [4]) came to 86 µM. Also, the “change in gene expression on induction” value in series [3] was 8 fold.

B2: PLacO23: Synthetic IPTG-inducible promoter + RBS, SEQ ID NO: 149 (nucleic acid)
DNA: TTACAAAGAAAATTCGACAAACTGTTATTTTTCTATCTATTTATTTGAATTGTGAGCGGATAACAATTACCTTTGTCGGCAATTGTGAGCGGATAACAATTAAATAAAGATATTCTCGTCAAACAAATATAAATAATATAAAC
With B2, the EC50 in series [3] (setting [4]) amounted to 6 µM. Further, the “change in gene expression on induction” value in series [3] came to 22 fold.

B3: PBT3324: Chondroitin-sulfate inducible promoter + RBS, SEQ ID NO: 145 (nucleic acid)
DNA: TATTTATAAGAGATAGCACATAATTTGAACTATTTTGTACGATTTGAACCCCTCTTTCCAACAAAAGAGGGGTTTCTTTGCATTCGGGAGAAGAACAAGTGATCTCTCTCTGTAAATACCGGCTAATGATAAACCGATTTACCATCGGACCTAAAACGATATATTCTATGATAAAGCAATCTTTTACTCTGTCAGTGACA
Consider B3, for which the “regulation of output gene expression” value in series [3] (chondroitin sulfate induction) is 60 fold.

B4: PBT3763: Rhamnose inducible promoter + RBS, SEQ ID NO: 144 (nucleic acid)
DNA: TATTTCGGAGAAAACATGCATAAATCATGCTTTTTTTGCATAAAAAGTAAAATTTATACTGATGTAAGGTTTGGCTATGCAGATTTGTGTCAAAATGCACATCCTTTCTATCAAAATGCGTAAGGAAAAGGAGGAAGGAACCGCCTATCTTTGCAATGTAGGTAAATGGATACCTTAAATATATAGACAAAATACC
In turn, B4 returned a Hill coefficient n in series [3] (rhamnose inducer) of 1.4. Moreover, the EC50 in series [3] (rhamnose inducer, read-out: threshold K (Hill function fit)) came out at 300 µM. Moreover, the output dynamic range in series [3] (rhamnose induction, NanoLuc) was 104 fold.

The record behind these values is US11591604B2, “Gene expression in Bacteroides” (Massachusetts Institute of Technology, priority 2015, dated 2023).
